# Experimental data from patent US20120015907A1, “Furopyridine compounds and uses thereof” (NOVARTIS AG, priority 2010, published 2012).
# Target: T1, HCV polymerase (Hepatitis C virus genotype 1b, UniProt Q9WMX2)
# T1 construct: (His)6 (C)
# Test: biochemical
# Conditions: NS5B polymerase IC50 μM, polymerase assay of Biological Example 1
# From the text: A number of assays have been published to assess these activities. A general method that assesses the gross increase of HCV virus in culture was disclosed in U.S. Pat. No. 5,738,985 to Miles et al. In vitro assays have been reported in Ferrari et al. Jnl. of Vir., 73:1649-1654, 1999; Ishii et al., Hepatology, 29:1227-1235, 1999; Lohmann et al., Jnl of Bio. Chem., 274:10807-10815, 1999; and Yamashita et al., Jnl. of Bio. Chem., 273:15479-15486, 1998.
# WO 97/12033, filed on Sep. 27, 1996, by Emory University, listing C. Hagedorn and A. Reinoldus as inventors, which claims priority to U.S. Provisional Patent Application Ser. No. 60/004,383, filed on September 1995, described an HCV polymerase assay that can be used to evaluate the activity of the of the compounds described herein. Another HCV polymerase assay has been reported by Bartholomeusz, et al., Hepatitis C Virus (HCV) RNA polymerase assay using cloned HCV non-structural proteins; Antiviral Therapy 1996:1(Supp 4) 18-24.
row,Compound,IC50 [µM]
1,"CCOP(C)(=O)CCCCCN(c1nc2oc(-c3ccc(C)cc3)c(C(=O)NC)c2cc1C1CC1)S(C)(=O)=O (stereo not shown) [Example 23.99995, ethyl 5-(N-(5-cyclopropyl-3-(methylcarbamoyl)-2-p-tolylfuro[2,3-b]pyridin-6-yl)methylsulfonamido)pentyl (methyl)phosphinate]",0.009

# Same assay, conditions: polymerase assay of Biological Example 1; read-out: NS5B polymerase IC50
row,Compound,IC50 [µM]
1,"CCc1cc2c(C(=O)NC)c(-c3ccc(F)cc3)oc2nc1N(CCCC(C)(C)C(=O)OCC(C)C)S(C)(=O)=O [Example 21.3, isobutyl 5-(N-(5-ethyl-2-(4-fluorophenyl)-3-(methylcarbamoyl)furo[2,3-b]pyridin-6-yl)methylsulfonamido)-2,2-dimethylpentanoate]",0.134
2,"CNC(=O)c1c(-c2ccc(C)cc2)oc2nc(N(CCCC(C)(OC)C(=O)O)S(C)(=O)=O)c(C3CC3)cc12 (stereo not shown) [Example 29.9992, 5-(N-(5-cyclopropyl-3-(methylcarbamoyl)-2-p-tolylfuro[2,3-b]pyridin-6-yl)methylsulfonamido)-2-methoxy-2-methylpentanoic acid]",0.004
3,"CCc1cc2c(C(=O)NC)c(-c3ccc(F)cc3)oc2nc1N(C[C@H](C)Cc1ccc(OC)nc1)S(C)(=O)=O [Example 21.7, (R)-5-ethyl-2-(4-fluorophenyl)-6-(N-(3-(6-methoxypyridin-3-yl)-2-methylpropyl)methylsulfonamido)-N-methylfuro[2,3-b]pyridine-3-carboxamide]",0.531
4,"CNC(=O)c1c(-c2ccc(C)cc2)oc2nc(N(CCCc3nn[nH]n3)S(C)(=O)=O)c(C3CC3)cc12 [Example 29.92, 6-(N-(3-(2H-tetrazol-5-yl)propyl)methylsulfonamido)-5-cyclopropyl-N-methyl-2-p-tolylfuro[2,3-b]pyridine-3-carboxamide]",0.002
5,"CCc1cc2c(C(=O)NC)c(-c3ccc(F)cc3)oc2nc1N(CCCN1CCOCC1)S(C)(=O)=O [Example 21.93, 5-ethyl-2-(4-fluorophenyl)-N-methyl-6-(N-(3-morpholinopropyl)methylsulfonamido)furo[2,3-b]pyridine-3-carboxamide]",0.186
6,"CNC(=O)c1c(-c2ccc(C)cc2)oc2nc(N(CCCC/C(C(=O)O)=C(\C)O)S(C)(=O)=O)c(C3CC3)cc12 [Example 46.1, (Z)-6-(N-(5-cyclopropyl-3-(methylcarbamoyl)-2-(p-tolyl)furo[2,3-b]pyridin-6-yl)methylsulfonamido)-2-(1-hydroxyethylidene)hexanoic acid]",0.003
7,"CNC(=O)c1c(-c2ccc(F)cc2)oc2nc(N(C)S(C)(=O)=O)c(C(C)=O)cc12 [Example 10, 5-acetyl-2-(4-fluorophenyl)-N-methyl-6-(N-methylmethylsulfonamido)furo[2,3-b]pyridine-3-carboxamide]",0.467
8,"CCc1cc2c(C(=O)NC)c(-c3ccc(F)cc3)oc2nc1N(CCN1Cc2ccccc2S1(=O)=O)S(C)(=O)=O [Example 22.994, 6-{[2-(1,1-Dioxo-1,3-dihydrobenzo[d]isothiazol-2-yl)-ethyl]-methanesulfonyl-amino}-5-ethyl-2-(4-fluoro-phenyl)-furo[2,3-b]pyridine-3-carboxylic acid methylamide]",1.06
9,"CCc1cc2c(C(=O)NC)c(-c3ccc(F)cc3)oc2nc1N(CCCC#N)S(C)(=O)=O [Example 21.991, 6-(N-(3-cyanopropyl)methylsulfonamido)-5-ethyl-2-(4-fluorophenyl)-N-methylfuro[2,3-b]pyridine-3-carboxamide]",0.074
10,"CNC(=O)c1c(-c2ccc(C)cc2)oc2nc(N(CCCNCCCC(=O)O)S(C)(=O)=O)c(C3CC3)cc12 [Example 23.999996, 4-(3-(N-(5-cyclopropyl-3-(methylcarbamoyl)-2-p-tolylfuro[2,3-b]pyridin-6-yl)methylsulfonamido)propylamino)butanoic acid]",0.016
11,CNC(=O)c1c(-c2ccc(C)cc2)oc2nc(N(CCC[C@H](COC)C(=O)N3C(=O)OC[C@@H]3Cc3ccccc3)S(C)(=O)=O)c(I)cc12 [Example 47.71],0.026
12,"CNC(=O)c1c(-c2ccc(C)cc2)oc2nc(N(CCC[C@H](C)C(=O)OCOP(=O)(OCc3ccccc3)OCc3ccccc3)S(C)(=O)=O)c(C3CC3)cc12 [Example 49.1, (S)-((bis(benzyloxy)phosphoryl)oxy)methyl 5-(N-(5-cyclopropyl-3-(methylcarbamoyl)-2-(p-tolyl)furo[2,3-b]pyridin-6-yl)methylsulfonamido)-2-methylpentanoate]",0.006
13,"CNC(=O)c1c(-c2ccc(F)cc2)oc2nc(N(CCc3ccccc3OC)S(C)(=O)=O)c(I)cc12 [Example 18.6, 2-(4-fluorophenyl)-5-iodo-6-(N-(2-methoxyphenethyl)methylsulfonamido)-N-methylfuro[2,3-b]pyridine-3-carboxamide]",0.573
14,"CNC(=O)c1c(-c2ccc(C)cc2)oc2nc(N(CCCC(C)C(=O)O)S(C)(=O)=O)c(C3CC3)cc12 (stereo not shown) [Example 29.9994, 5-(N-(5-cyclopropyl-3-(methylcarbamoyl)-2-p-tolylfuro[2,3-b]pyridin-6-yl)methylsulfonamido)-2-methylpentanoic acid]",0.002
15,"CNC(=O)c1c(-c2ccc(C)cc2)oc2nc(N(CCCCO)S(C)(=O)=O)c(C3CC3)cc12 [Example 23.99994, 5-cyclopropyl-6-(N-(4-hydroxybutyl)methylsulfonamido)-N-methyl-2-p-tolylfuro[2,3-b]pyridine-3-carboxamide]",0.003
16,"C=CCN(c1nc2oc(-c3ccc(C)cc3)c(C(=O)NC)c2cc1C1CC1)S(C)(=O)=O [Example 29.97, 6-(N-allylmethylsulfonamido)-5-cyclopropyl-N-methyl-2-p-tolylfuro[2,3-b]pyridine-3-carboxamide]",0.003
17,"C=CCCCN(c1nc2oc(-c3ccc(F)cc3)c(C(=O)NC)c2cc1I)S(C)(=O)=O [Example 18.5, 2-(4-fluorophenyl)-5-iodo-N-methyl-6-(N-(pent-4-enyl)methylsulfonamido)furo[2,3-b]pyridine-3-carboxamide]",0.449

# Next, values leading:
row,IC50 [µM],Compound
1,0.428,"CCc1cc2c(C(=O)NC)c(-c3ccc(F)cc3)oc2nc1N(CCN1CCN(C(=O)OC(C)(C)C)CC1)S(C)(=O)=O [Example 21.998, tert-butyl 4-(2-(N-(5-ethyl-2-(4-fluorophenyl)-3-(methylcarbamoyl)furo[2,3-b]pyridin-6-yl)methylsulfonamido)ethyl)piperazine-1-carboxylate]"
2,0.129,"CNC(=O)c1c(-c2ccc(C)cc2)oc2nc(N(CCCC3(C(=O)O)CCNCC3)S(C)(=O)=O)c(C3CC3)cc12 [Example 29.99991, 4-(3-(N-(5-cyclopropyl-3-(methylcarbamoyl)-2-p-tolylfuro[2,3-b]pyridin-6-yl)methylsulfonamido)propyl) piperidine-4-carboxylic acid]"
3,0.125,"CCc1cc2c(C(=O)NC)c(-c3ccc(F)cc3)oc2nc1N(CCCNS(C)(=O)=O)S(C)(=O)=O [Example 23.4, 5-ethyl-2-(4-fluorophenyl)-N-methyl-6-(N-(3-(methylsulfonamido)propyl)methylsulfonamido)furo[2,3-b]pyridine-3-carboxamide]"
4,0.112,"CNC(=O)c1c(-c2ccc(F)cc2)oc2nc(N(CCCS(C)(=O)=O)S(C)(=O)=O)c(I)cc12 [Example 18.993, 2-(4-fluorophenyl)-5-iodo-N-methyl-6-(N-(3-(methylsulfonyl)propyl)methylsulfonamido)furo[2,3-b]pyridine-3-carboxamide]"
5,0.089,"CCc1cc2c(C(=O)NC)c(-c3ccc(F)cc3)oc2nc1N(CCN1CCSCC1)S(C)(=O)=O [Example 22.3, 5-ethyl-2-(4-fluorophenyl)-N-methyl-6-(N-(2-thiomorpholinoethyl)methylsulfonamido)furo[2,3-b]pyridine-3-carboxamide]"
6,0.058,CNC(=O)c1c(-c2ccc(C)cc2)oc2nc(N(CCC[C@H](C)C(=O)N[C@@H](CO)Cc3ccccc3)S(C)(=O)=O)c(C3CC3)cc12 [Example 47.2]
7,0.033,"CCc1cc2c(C(=O)NC)c(-c3ccc(F)cc3)oc2nc1N(CCOCCN1C(=O)NC(C)(C)C1=O)S(C)(=O)=O [Example 22.4, 6-(N-(2-(2-(4,4-dimethyl-2,5-dioxoimidazolidin-1-yl)ethoxy)ethyl)methylsulfonamido)-5-ethyl-2-(4-fluorophenyl)-N-methylfuro[2,3-b]pyridine-3-carboxamide]"
8,0.003,"CCc1ccc(-c2oc3nc(N(CCCCC4(C(=O)O)CCOCC4)S(C)(=O)=O)c(C4CC4)cc3c2C(=O)NC)cc1 [Example 29.94, 4-(4-(N-(5-cyclopropyl-2-(4-ethylphenyl)-3-(methylcarbamoyl)furo[2,3-b]pyridin-6-yl)methylsulfonamido)butyl) tetrahydro-2H-pyran-4-carboxylic acid]"
9,0.002,"CNC(=O)c1c(-c2ccc(C)cc2)oc2nc(N(CCC[C@H](C)C(=O)OCOP(=O)(O)O)S(C)(=O)=O)c(C3CC3)cc12 [Example 49, (S)-(phosphonooxy)methyl 5-(N-(5-cyclopropyl-3-(methylcarbamoyl)-2-(p-tolyl)furo[2,3-b]pyridin-6-yl)methylsulfonamido)-2-methylpentanoate]"
10,0.002,"CNC(=O)c1c(-c2ccc(C)cc2)oc2nc(N(CCCC#N)S(C)(=O)=O)c(C3CC3)cc12 [Example 29.5, 6-(N-(3-cyanopropyl)methylsulfonamido)-5-cyclopropyl-N-methyl-2-p-tolylfuro[2,3-b]pyridine-3-carboxamide]"
